Assay results taken from publication PMC3124361 (Journal of medicinal chemistry, 2011).
Values after ≈ are worked out from the molar mass of the structure shown.

Experiments:
[1] = Non-equilibrium solubility by nephelometry, pH 6.5; type: physicochemical; conditions: for solubility: phosphate buffer
[2] = target: human albumin (Homo sapiens, UniProt P02768); assay: Protein binding estimated on human albumin column; type: in vitro ADME; conditions: human albumin chromatographic method
[3] = In vitro metabolism in human liver microsomes; type: in vitro ADME; conditions: for Eh Human: predicted hepatic extraction ratio; for microsomal CLint at 1 μM: microsomes, pH 7.4
[4] = target: T1, PfDHODH (Plasmodium falciparum, UniProt Q08210); assay: PfDHODH DCIP dye-based enzyme assay; type: biochemical; conditions: for IC50: IC50 PfDHODH
T1 sequence (Q08210 158-569 limits assumed): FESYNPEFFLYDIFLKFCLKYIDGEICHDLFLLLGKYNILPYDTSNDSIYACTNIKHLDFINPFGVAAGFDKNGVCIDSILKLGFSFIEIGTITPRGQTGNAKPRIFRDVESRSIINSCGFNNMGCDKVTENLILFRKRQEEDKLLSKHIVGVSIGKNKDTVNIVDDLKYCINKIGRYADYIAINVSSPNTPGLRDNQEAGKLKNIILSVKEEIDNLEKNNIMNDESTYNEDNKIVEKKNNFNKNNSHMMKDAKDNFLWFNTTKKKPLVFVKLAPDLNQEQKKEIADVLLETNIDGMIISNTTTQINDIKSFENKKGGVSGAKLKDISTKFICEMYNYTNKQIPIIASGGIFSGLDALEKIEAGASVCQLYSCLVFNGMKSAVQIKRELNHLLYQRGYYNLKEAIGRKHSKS

[5] = In vitro metabolism in mouse liver microsomes; type: in vitro ADME; conditions: for Eh Mouse: predicted hepatic extraction ratio; for microsomal CLint at 1 μM: microsomes, pH 7.4

Chain of human albumin (P02768 25-609): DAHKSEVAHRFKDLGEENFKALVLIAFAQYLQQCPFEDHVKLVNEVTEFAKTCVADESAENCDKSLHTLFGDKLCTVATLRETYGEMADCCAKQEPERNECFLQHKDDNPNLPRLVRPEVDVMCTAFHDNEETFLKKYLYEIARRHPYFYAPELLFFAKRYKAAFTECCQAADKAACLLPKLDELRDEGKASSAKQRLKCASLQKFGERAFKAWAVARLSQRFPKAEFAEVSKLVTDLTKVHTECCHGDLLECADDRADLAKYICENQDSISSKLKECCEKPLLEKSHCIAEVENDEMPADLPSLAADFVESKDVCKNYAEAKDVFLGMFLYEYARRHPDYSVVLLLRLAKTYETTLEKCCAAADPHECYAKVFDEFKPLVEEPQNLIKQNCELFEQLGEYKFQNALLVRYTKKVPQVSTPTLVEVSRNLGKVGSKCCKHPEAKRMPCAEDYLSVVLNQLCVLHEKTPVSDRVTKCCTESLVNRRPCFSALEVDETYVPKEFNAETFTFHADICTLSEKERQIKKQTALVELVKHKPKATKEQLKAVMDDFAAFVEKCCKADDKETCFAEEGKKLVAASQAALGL

SMILES: CCc1ccc(Nc2cc(C)nc3ncnn23)cc1 [Compound 7, N-(4-Ethylphenyl)-5-methyl-[1,2,4]triazolo[1,5-a]pyrimidin-7-amine]
- solubility [1]: 25 to 50 µM (≈ 6.33 to 12.7 µg/mL)
- Human Plasma Binding [2]: 88.0%
- Eh Human [3]: 0.77/ND

SMILES: CCCc1ccc(Nc2cc(C)nc3ncnn23)cc1 [Compound 8, N-(4-Propylphenyl)-5-methyl-[1,2,4]triazolo[1,5-a]pyrimidin-7-amine]
- aqueous solubility at pH 6.5 (in words) [1]: highly soluble
- solubility [1]: 187 to 374 µM (≈ 50 to 100 µg/mL)
- Human Plasma Binding [2]: 93.5%
- Eh Human [3]: 0.66/ND

SMILES: CCCCc1ccc(Nc2cc(C)nc3ncnn23)cc1 [Compound 9, N-(4-Butylphenyl)-5-methyl-[1,2,4]triazolo[1,5-a]pyrimidin-7-amine]
- aqueous solubility at pH 6.5 (in words) [1]: poorly soluble
- solubility [1]: 11 to 22 µM (≈ 3.09 to 6.19 µg/mL)
- Human Plasma Binding [2]: 96.7%
- Eh Human [3]: 0.67/ND

SMILES: CCCCCCCCc1ccc(Nc2cc(C)nc3ncnn23)cc1 [Compound 13, N-(4-Octylphenyl)-5-methyl-[1,2,4]triazolo[1,5-a]pyrimidin-7-amine]
- IC50 [4]: > 50 µM

SMILES: Cc1cc(Nc2ccc(C3CC3)cc2)n2ncnc2n1 [Compound 16, N-(4-Cyclopropylphenyl)-5-methyl-[1,2,4]triazolo[1,5-a]pyrimidin-7-amine]
- aqueous solubility at pH 6.5 (in words) [1]: highly soluble
- Human Plasma Binding [2]: 86.8%
- Eh Human [3]: 0.75
- Eh Mouse [5]: 0.93

SMILES: C=Cc1ccc(Nc2cc(C)nc3ncnn23)cc1 [Compound 17, N-(4-Vinylphenyl)-5-methyl-[1,2,4]triazolo[1,5-a]pyrimidin-7-amine]
- solubility [1]: 25 to 50 µM (≈ 6.28 to 12.6 µg/mL)
- Human Plasma Binding [2]: 84.4%
- Eh Human [3]: 0.64
- Eh Mouse [5]: 0.88

SMILES: C#Cc1ccc(Nc2cc(C)nc3ncnn23)cc1 [Compound 18, N-(4-Ethynylphenyl)-5-methyl-[1,2,4]triazolo[1,5-a]pyrimidin-7-amine]
- solubility [1]: 100 to 200 µM (≈ 24.9 to 49.9 µg/mL)
- Human Plasma Binding [2]: 81.8%
- microsomal CLint at 1 μM [3]: < 10 µL/min/mg
- Eh Human [3]: 0.31
- microsomal CLint at 1 μM [5]: > 25 µL/min/mg
- Eh Mouse [5]: 0.54

SMILES: Cc1cc(Nc2ccc(N(C)C)cc2)n2ncnc2n1 [Compound 23, N^1,N^1-Dimethyl-N^4-(5-methyl-[1,2,4]triazolo[1,5-a]pyrimidin-7-yl)benzene-1,4-diamine]
- fold less potent / increase of PfDHODH IC50 over 14 ([4]; comparator 14): 4 fold
- solubility [1]: 93 to 186 µM (≈ 25 to 49.9 µg/mL)
- Eh Human [3]: 0.4
- Eh Mouse [5]: 0.91

SMILES: Cc1cc(Nc2ccc(N3CCOCC3)cc2)n2ncnc2n1 [Compound 25, N-(4-Morpholinophenyl)-5-methyl-[1,2,4]triazolo[1,5-a]pyrimidin-7-amine]
- IC50 [4]: > 100 µM

SMILES: Cc1cc(Nc2ccc(NC(C)(C)C)cc2)n2ncnc2n1 [Compound 26, N^1-tert-Butyl-N^4(5-methyl-[1,2,4]triazolo[1,5-a]pyrimidin-7-yl)benzene-1,4-diamine]
- IC50 [4]: > 50 µM

SMILES: Cc1cc(Nc2ccc(Cl)c(F)c2)n2ncnc2n1 [Compound 30, N-(4-Chloro-3-fluorophenyl)-5-methyl-[1,2,4]triazolo[1,5-a]pyrimidin-7-amine]
- fold decrease in PfDHODH IC50 over the 4-Cl alone ([4]; comparator 4-Cl-Ph (DSM89)): 3 fold

SMILES: Cc1cc(Nc2ccc3c(c2)OCO3)n2ncnc2n1 [Compound 35, N-(Benzo[d][1,3]dioxol-5yl)-5-methyl-[1,2,4]triazolo[1,5-a]pyrimidin-7-amine]
- aqueous solubility at pH 6.5 (in words) [1]: highly soluble
- solubility [1]: 186 to 372 µM (≈ 50.1 to 100 µg/mL)
- Eh Human [3]: 0.37/ND

SMILES: Cc1cc(NC2CC2)n2ncnc2n1 [Compound 38, N-Cyclopropyl-5-methyl-[1,2,4]triazolo[1,5-a]pyrimidin-7-amine]
- IC50 [4]: > 100 µM

SMILES: Cc1cc(NC2CCC2)n2ncnc2n1 [Compound 39, N-Cyclobutyl-5-methyl-[1,2,4]triazolo[1,5-a]pyrimidin-7-amine]
- IC50 [4]: > 100 µM

SMILES: Cc1cc(NC2CCCC2)n2ncnc2n1 [Compound 40, N-Cyclopentyl-5-methyl-[1,2,4]triazolo[1,5-a]pyrimidin-7-amine]
- IC50 [4]: > 100 µM

SMILES: Cc1cc(NC2CCCCC2)n2ncnc2n1 [Compound 41, N-Cyclohexyl-5-methyl-[1,2,4]triazolo[1,5-a]pyrimidin-7-amine]
- IC50 [4]: > 100 µM

SMILES: Cc1cc(NC2CCCCCC2)n2ncnc2n1 [Compound 42, N-Cycloheptyl-5-methyl-[1,2,4]triazolo[1,5-a]pyrimidin-7-amine]
- IC50 [4]: > 100 µM

SMILES: Cc1cc(NC2CCCCCCC2)n2ncnc2n1 [Compound 43, N-Cyclooctyl-5-methyl-[1,2,4]triazolo[1,5-a]pyrimidin-7-amine]
- IC50 [4]: > 100 µM

SMILES: Cc1cc(NC2CCc3ccccc3C2)n2ncnc2n1 (stereo not shown) [Compound 49, 5-Methyl-N-(1,2,3,4-tetrahydronaphthalen-2-yl)-[1,2,4]triazolo[1,5-a]pyrimidin-7-amine]
- aqueous solubility at pH 6.5 (in words) [1]: highly soluble
- microsomal CLint at 1 μM [3]: < 10 µL/min/mg
- Eh Human [3]: < 0.2
- microsomal CLint at 1 μM [5]: > 25 µL/min/mg
- Eh Mouse [5]: 0.61

SMILES: Cc1cc(NOc2ccccc2)n2ncnc2n1 [Compound 52, N-(5-Methyl-[1,2,4]triazolo[1,5-a]pyrimidin-7-yl)-O-phenylhydroxylamine]
- activity against PfDHODH (in words) [4]: inactive
- IC50 [4]: > 100 µM

SMILES: Cc1cc(NCc2ccccc2)n2ncnc2n1 [Compound 53]
- IC50 [4]: > 100 µM

SMILES: Cc1cc(NCc2ccc(F)cc2)n2ncnc2n1 [Compound 54]
- activity against PfDHODH (in words) [4]: inactive
- IC50 [4]: > 100 µM

SMILES: Cc1cc(NCc2ccc(C(F)(F)F)cc2)n2ncnc2n1 [Compound 55]
- activity against PfDHODH (in words) [4]: inactive
- IC50 [4]: > 100 µM

SMILES: Cc1cc(NCCc2ccccc2)n2ncnc2n1 [Compound 56, 5-Methyl-N-phenethyl-[1,2,4]triazolo[1,5-a]pyrimidin-7-amine]
- activity against PfDHODH (in words) [4]: mid-micromolar range activity

SMILES: Cc1cc(NCCCc2ccccc2)n2ncnc2n1 [Compound 57]
- activity against PfDHODH (in words) [4]: mid-micromolar range activity

SMILES: CCc1cc(Nc2ccc(C(F)(F)F)cc2)n2ncnc2n1 [Compound 59, 5-Ethyl-N-(4-trifluoromethyl)phenyl-[1,2,4]triazolo[1,5-a]pyrimidin-7-amine]
- fold reduction in PfDHODH inhibitory activity versus 2 ([4]; comparator 2): 2 fold

SMILES: FC(F)(F)c1ccc(Nc2cc(C(F)(F)F)nc3ncnn23)cc1 [Compound 60]
- fold reduction in PfDHODH inhibitory activity versus 2 ([4]; comparator 2): 4 fold

SMILES: FC(F)(F)c1ccc(Nc2cc(Cl)nc3ncnn23)cc1 [Compound 61]
- fold better activity (lower IC50) against PfDHODH than 2 ([4]; comparator 2): 2 fold

SMILES: CCCc1c(C)nc2ncnn2c1Nc1ccc(C)cc1 [Compound 64]
- activity against PfDHODH (in words) [4]: complete loss in activity
- IC50 [4]: > 100 µM
